Results taken from patent US11981680B2, “Substituted thienopyrroles as PAD4 inhibitors” (BRISTOL-MYERS SQUIBB COMPANY, priority 2018, dated 2024).
pIC50: −log10 of the molar value.

Target: human PAD4 (hPAD4) (Homo sapiens (Human), UniProt Q9UM07)
Experiment: RFMS Human PAD4 Functional Assay
Type: biochemical
Settings: rapid-fire mass spectrum (RFMS) assay; 5 nM hPAD4 enzyme, 250 μM BAEE, 30 min preincubation at 37° C.
Procedure: Compounds of the present invention were assayed as inhibitors of PAD4 using the assay protocol described below.
RFMS Human PAD4 Functional Assay:
Compounds were solubilized in 100% DMSO to achieve a10 mM compound concentration. Compound stock solutions were stored at RT. A series of dilutions were prepared in DMSO and mixed 8 times with 20 μL mixing volume. Final top concentration of compound in the assay is 50 μM. Final assay conditions were as follows: • Reaction volume: 26 μl • Assay buffer: 25 mM hepes, pH 7.5, 5 mM NaCl, 1 mM DTT, 0.2 mg/ml BSA, 0.01% CHAPS, 50 μM Calcium, and 5 μM TPEN • Final concentrations: 5 nM hPAD4 enzyme, 250 μM BAEE, and 0.5% DMSO • Total incubation time: 30 mins compound and enzyme preincubation at 37° C., 90 min enzyme/substrate reaction, 30 min reaction with phenyl glyoxal at 37° C. • Stop solution: 40 μl 5% TCA in ACN
0.13 μL of compound solution was added to 13 μL of 10 nM PAD4 in assay buffer. After 30 min 13 μl of 500 μM of BAEE was added in 25 mM hepes, pH 7.5, 5 mM NaCl, 1 mM DTT, 0.2 mg/ml BSA, 0.01% CHAPS, 50 μM Calcium, 5 μM TPEN was added and the reaction incubated for 90 min at 37° C. The enzymatic reaction was quenched by addition of 15 μl of 6.1N TCA, 100% Final Concentration is 20%, 35 μl of 8.5 mM phenyl glyoxal (final concentration 4 mM) is then added and the reaction is incubated for 30 min at 37° C.
After 30 minutes the plates are spun down to remove all precipitate. The enzyme reaction was quenched with an equal volume of methanol containing internal standard (modified citrulline). Samples were loaded onto the Rapid Fire RF300 system (Agilent) wherein they were first sipped for 1000 ms and then directly loaded to a C18 separations cartridge using a mixture of acetonitrile containing 0.01% formic acid for 3000 ms desalting. The flow rate of the mobile phase was 1.5 ml/min. Once the samples were eluted from the cartridge, a mobile phase of acetonitrile containing 0.01% formic acid was used to move the samples into the mass spectrometer for 4000 ms at a flow rate of 1.25 ml/min/Sciex API5500 triple quadrupole mass spectrometer (Applied Biosystems) equipped with ESI was used to analyze the peptidyl citrulline and internal standard ions.
MRM transition of product and internal standard were monitored at m/z 424.5 to 350.4 and m/z 293 to 247 respectively. The dwell time for each transition was set at 200 ms, and the ESI voltage was used at 5500 with a source temperature of 400° C. Extracted ion peaks for each transition were integrated using the Rapid Fire Integrator software. Peak area of analyte was normalized with internal standard.).

human PAD4 (hPAD4), sequence (Q9UM07 whole entry): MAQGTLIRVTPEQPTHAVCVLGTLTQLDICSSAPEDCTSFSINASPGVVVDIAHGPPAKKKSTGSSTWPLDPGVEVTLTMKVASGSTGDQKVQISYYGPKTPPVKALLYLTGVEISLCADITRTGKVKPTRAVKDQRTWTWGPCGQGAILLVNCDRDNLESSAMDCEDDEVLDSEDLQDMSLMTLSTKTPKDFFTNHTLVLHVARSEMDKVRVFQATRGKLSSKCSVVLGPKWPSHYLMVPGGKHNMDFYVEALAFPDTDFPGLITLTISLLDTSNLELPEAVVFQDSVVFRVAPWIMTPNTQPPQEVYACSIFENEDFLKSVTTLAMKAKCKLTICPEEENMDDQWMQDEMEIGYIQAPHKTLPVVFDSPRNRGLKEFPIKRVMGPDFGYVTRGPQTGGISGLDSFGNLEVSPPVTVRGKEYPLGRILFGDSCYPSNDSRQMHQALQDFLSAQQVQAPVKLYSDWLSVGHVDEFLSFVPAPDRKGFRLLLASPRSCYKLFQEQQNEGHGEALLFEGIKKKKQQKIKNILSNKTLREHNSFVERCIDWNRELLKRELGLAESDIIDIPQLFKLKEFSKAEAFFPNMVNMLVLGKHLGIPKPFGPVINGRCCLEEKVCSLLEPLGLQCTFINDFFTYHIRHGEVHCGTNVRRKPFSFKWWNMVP

How did the pIC50 turn out when `COc1cc(C(=O)N2C[C@H]3CC[C@@H]2[C@@H]3N)cc2nc(-c3cc4scc(C5CC(O)C5)c4n3CC3CC3)n(C)c12` (single isomer, unassigned) [Example 22] was run?
The pIC50 was 7.09.

With `COc1cc(C(=O)N2C[C@H]3CC[C@@H]2[C@@H]3N)cc2nc(-c3cc4scc(-c5cnn(C)c5)c4n3CC3CC3)n(C)c12` [Example 32, ((1R,4R,7R)-7-amino-2-azabicyclo[2.2.1]heptan-2-yl)(2-(4-(cyclopropylmethyl)-3-(1-methyl-1H-pyrazol-4-yl)-4H-thieno[3,2-b]pyrrol-5-yl)-7-methoxy-1-methyl-1H-benzo[d]imidazol-5-yl)methanone] as the compound, how does the pIC50 read?
The pIC50 was 7.77.

How did the pIC50 turn out when `COc1cc(C(=O)N2C[C@H]3CC[C@@H]2[C@@H]3N)cc2nc(-c3cc4scc(-c5cc[nH]n5)c4n3CC3CC3)n(C)c12` [Example 40, ((1R,4R,7R)-7-amino-2-azabicyclo[2.2.1]heptan-2-yl)(2-(4-(cyclopropylmethyl)-3-(1H-pyrazol-3-yl)-4H-thieno[3,2-b]pyrrol-5-yl)-7-methoxy-1-methyl-1H-benzo[d]imidazol-5-yl)methanone] was run?
The pIC50 was 7.62.

With `COc1cc(C(=O)N2C[C@H]3CC[C@@H]2[C@@H]3N)cc2nc(-c3cc4scc(C5CCOC5)c4n3CC3CC3)n(C)c12` (stereo partly drawn) [Example 12, ((1R,4R,7R)-7-amino-2-azabicyclo[2.2.1]heptan-2-yl)(2-(4-(cyclopropylmethyl)-3-(tetrahydrofuran-3-yl)-4H-thieno[3,2-b]pyrrol-5-yl)-7-methoxy-1-methyl-1H-benzo[d]imidazol-5-yl)methanone] as the compound, how does the pIC50 read?
Its pIC50 is 7.31.

`COc1cc(C(=O)N2C[C@H]3CC[C@@H]2[C@@H]3N)cc2nc(-c3cc4scc(C5CCC(O)CC5)c4n3CC3CC3)n(C)c12` (mixture of isomers) [Example 10, cis/trans-((1R,4R,7R)-7-amino-2-azabicyclo[2.2.1]heptan-2-yl)(2-(4-(cyclopropylmethyl)-3-(4-hydroxycyclohexyl)-4H-thieno[3,2-b]pyrrol-5-yl)-7-methoxy-1-methyl-1H-benzo[d]imidazol-5-yl)methanone] was tested. Which pIC50 did it give?
Its pIC50 is 7.34.

`COc1cc(C(=O)N2C[C@H]3CC[C@@H]2[C@@H]3N)cc2nc(-c3cc4scc(-c5cccn5C)c4n3CC3CC3)n(C)c12` [Example 44, ((1R,4R,7R)-7-amino-2-azabicyclo[2.2.1]heptan-2-yl)(2-(4-(cyclopropylmethyl)-3-(1-methyl-1H-pyrrol-2-yl)-4H-thieno[3,2-b]pyrrol-5-yl)-7-methoxy-1-methyl-1H-benzo[d]imidazol-5-yl)methanone] was tested. Which pIC50 did it give?
The pIC50 was 6.95.

With `COc1cc(C(=O)N2C[C@H]3CC[C@@H]2[C@@H]3N)cc2nc(-c3cc4scc(CCCO)c4n3CC3CC3)n(C)c12` [Example 14, ((1R,4R,7R)-7-amino-2-azabicyclo[2.2.1]heptan-2-yl)(2-(4-(cyclopropylmethyl)-3-(3-hydroxypropyl)-4H-thieno[3,2-b]pyrrol-5-yl)-7-methoxy-1-methyl-1H-benzo[d]imidazol-5-yl)methanone] as the compound, how does the pIC50 read?
The pIC50 was 7.25.

`COc1cc(C(=O)N2C[C@H]3CC[C@@H]2[C@@H]3N)cc2nc(-c3cc4scc(-c5ccn(C(C)C)n5)c4n3CC3CC3)n(C)c12` [Example 34, ((1R,4R,7R)-7-amino-2-azabicyclo[2.2.1]heptan-2-yl)(2-(4-(cyclopropylmethyl)-3-(1-isopropyl-1H-pyrazol-3-yl)-4H-thieno[3,2-b]pyrrol-5-yl)-7-methoxy-1-methyl-1H-benzo[d]imidazol-5-yl)methanone] was tested. Which pIC50 did it give?
The pIC50 was 7.32.

`COc1cc(C(=O)N2C[C@H]3CC[C@@H]2[C@@H]3N)cc2nc(-c3cc4sccc4n3CC3CC3)n(C)c12` [Example 29, ((1R,4R,7R)-7-amino-2-azabicyclo[2.2.1]heptan-2-yl)(2-(4-(cyclopropylmethyl)-4H-thieno[3,2-b]pyrrol-5-yl)-7-methoxy-1-methyl-1H-benzo[d]imidazol-5-yl)methanone] was tested. Which pIC50 did it give?
The pIC50 was 7.08.

`COc1cc(C(=O)N2C[C@H]3CC[C@@H]2[C@@H]3N)cc2nc(-c3cc4scc(C5CNC5)c4n3CC3CC3)n(C)c12` [Example 16, ((1R,4R,7R)-7-amino-2-azabicyclo[2.2.1]heptan-2-yl)(2-(3-(azetidin-3-yl)-4-(cyclopropylmethyl)-4H-thieno[3,2-b]pyrrol-5-yl)-7-methoxy-1-methyl-1H-benzo[d]imidazol-5-yl)methanone] was tested. Which pIC50 did it give?
The pIC50 was 6.90.

With `COc1cc(C(=O)N2C[C@H]3CC[C@@H]2[C@@H]3N)cc2nc(-c3cc4sc(-c5ccncc5)cc4n3CC3CC3)n(C)c12` [Example 25, ((1R,4R,7R)-7-Amino-2-azabicyclo[2.2.1]heptan-2-yl)(2-(4-(cyclopropylmethyl)-2-(pyridin-4-yl)-4H-thieno[3,2-b]pyrrol-5-yl)-7-methoxy-1-methyl-1H-benzo[d]imidazol-5-yl)methanone] as the compound, how does the pIC50 read?
The pIC50 was 6.75.

With `COc1cc(C(=O)N2C[C@H]3CC[C@@H]2[C@@H]3N)cc2nc(-c3cc4scc(-c5cnn(C6CCOCC6)c5)c4n3CC3CC3)n(C)c12` [Example 48, ((1R,4R,7R)-7-amino-2-azabicyclo[2.2.1]heptan-2-yl)(2-(4-(cyclopropylmethyl)-3-(1-(tetrahydro-2H-pyran-4-yl)-1H-pyrazol-4-yl)-4H-thieno[3,2-b]pyrrol-5-yl)-7-methoxy-1-methyl-1H-benzo[d]imidazol-5-yl)methanone] as the compound, how does the pIC50 read?
Its pIC50 is 7.54.

With `COc1cc(C(=O)N2C[C@H]3CC[C@@H]2[C@@H]3N)cc2nc(-c3cc4scc(Br)c4n3CC3CC3)n(C)c12` [Example 1, ((1R,4R,7R)-7-amino-2-azabicyclo[2.2.1]heptan-2-yl)(2-(3-bromo-4-(cyclopropylmethyl)-4H-thieno[3,2-b]pyrrol-5-yl)-7-methoxy-1-methyl-1H-benzo[d]imidazol-5-yl)methanone] as the compound, how does the pIC50 read?
The pIC50 was 7.46.

`COc1cc(C(=O)N2C[C@H]3CC[C@@H]2[C@@H]3N)cc2nc(-c3cc4scc(C5CCOCC5)c4n3CC3CC3)n(C)c12` [Example 8, ((1R,4R,7R)-7-amino-2-azabicyclo[2.2.1]heptan-2-yl)(2-(4-(cyclopropylmethyl)-3-(tetrahydro-2H-pyran-4-yl)-4H-thieno[3,2-b]pyrrol-5-yl)-7-methoxy-1-methyl-1H-benzo[d]imidazol-5-yl)methanone] was tested. Which pIC50 did it give?
The pIC50 was 7.40.

`COc1cc(C(=O)N2C[C@H]3CC[C@@H]2[C@@H]3N)cc2nc(-c3cc4scc(-c5cnc(C#N)nc5)c4n3CC3CC3)n(C)c12` [Example 41, 5-(5-(5-((1R,4R,7R)-7-amino-2-azabicyclo[2.2.1]heptane-2-carbonyl)-7-methoxy-1-methyl-1H-benzo[d]imidazol-2-yl)-4-(cyclopropylmethyl)-4H-thieno[3,2-b]pyrrol-3-yl)pyrimidine-2-carbonitrile] was tested. Which pIC50 did it give?
The pIC50 was 6.85.

How did the pIC50 turn out when `COc1cc(C(=O)N2C[C@H]3CC[C@@H]2[C@@H]3N)cc2nc(-c3cc4scc(C5CCNCC5)c4n3CC3CC3)n(C)c12` [Example 3, ((1R,4R,7R)-7-amino-2-azabicyclo[2.2.1]heptan-2-yl)(2-(4-(cyclopropylmethyl)-3-(piperidin-4-yl)-4H-thieno[3,2-b]pyrrol-5-yl)-7-methoxy-1-methyl-1H-benzo[d]imidazol-5-yl)methanone] was run?
The pIC50 was 7.92.

`COc1cc(C(=O)N2C[C@H](N)C[C@@H](F)C2)cc2nc(-c3cc4scc(-c5cnn(C)c5)c4n3CC3CC3)n(C)c12` [Example 33, ((3R,5R)-3-amino-5-fluoropiperidin-1-yl)(2-(4-(cyclopropylmethyl)-3-(1-methyl-1H-pyrazol-4-yl)-4H-thieno[3,2-b]pyrrol-5-yl)-7-methoxy-1-methyl-1H-benzo[d]imidazol-5-yl)methanone] was tested. Which pIC50 did it give?
The pIC50 was 7.30.

`COc1cc(C(=O)N2C[C@H]3CC[C@@H]2[C@@H]3N)cc2nc(-c3cc4scc(-c5ccnn5C)c4n3CC3CC3)n(C)c12` [Example 45, ((1R,4R,7R)-7-amino-2-azabicyclo[2.2.1]heptan-2-yl)(2-(4-(cyclopropylmethyl)-3-(1-methyl-1H-pyrazol-5-yl)-4H-thieno[3,2-b]pyrrol-5-yl)-7-methoxy-1-methyl-1H-benzo[d]imidazol-5-yl)methanone] was tested. Which pIC50 did it give?
Its pIC50 is 7.28.
